Measured values from patent publication US20240043420A1, “7-AZAINDOLE COMPOUNDS FOR INHIBITION OF BCR-ABL TYROSINE KINASES” (EnLiven Therapeutics, Inc., priority 2020, published 2024).

Tests used:
K562 cells = assay: K562 cell proliferation assay (CellTiter-Glo); format: cell-based; settings: Homo sapiens, K562, 72 h, CellTiter-Glo viability, read-out: Cell Line (IC50, nM) K562
Procedure, shortened: (§1)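 Cells in IMDM/10% FBS seeded at 2,000 (K562) or 1,500 (HL60) per well, exposed to serially diluted compounds for 72 h at 37 °C, 5% CO2. Viability by CellTiter-Glo luminescence, normalized between DMSO (high) and cell-free media (low) controls.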

HL60 cells = assay: HL60 cell proliferation assay (CellTiter-Glo); format: cell-based; settings: Homo sapiens, HL-60, 72 h, CellTiter-Glo viability, read-out: Cell Line (IC50, nM) HL60
Procedure, shortened: as §1

ABL1 = molecular target: T1, ABL1 (Homo sapiens, UniProt P00519); assay: Luminescence-based ABL kinase assay (ADP-Glo, 300 μM ATP); format: biochemical
T1 construct: purchased Carna Biosciences
Procedure, shortened: (§2)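 ABL1 (3.325 nM in the enzyme solution) was preincubated with compound for 30 min at RT in HEPES pH 7.5 buffer with MgCl2, EGTA, DTT, BSA and Brij-35. Adding Peptide 2 and ATP (6 μM and 1.2 mM in the start solution) began a 90 min RT reaction. ADP-Glo luminescence gave % activity and IC50.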

ABL1 (T315I) = ABL1 (T315I) (Homo sapiens, UniProt P00519, T315I); assay: Luminescence-based ABL kinase assay (ADP-Glo, 300 μM ATP), T315I mutant; format: biochemical
Procedure, shortened: as §2

pCRKL in K562 cells = assay: pCRKL ELISA assay in K562 cells; format: cell-based; settings: Homo sapiens, 1.5 h, 90 minutes incubation, read-out: PCRKL ELISA, Cell Line IC50 (nM) K562
Method: K562 or Ba/F3 ABL T315I cells (2.0*10^5 cells/100 μl/well) were seeded in 96 well (Corning, cat #3799). Compounds were dissolved in DMSO, serially diluted in DMSO and then were added, mixed, and incubated for 90 minutes at 37° C., 5% CO2. Following the 90-minute incubation, plates were centrifuged for 5 min at 3000 RPM and supernatant was removed from each well. Cells were washed 3 times with 150 μl PBS prior to addition of 100 μl cell RIPA lysis buffer (Boston BioProducts, cat #BP-115D) supplied with 1×complete ULTRA cocktail inhibitor (Roche, 05892791001) and 1×PhosSTOP Phosphatase Inhibitor Cocktail Tablets (Roche, 04906837001). Cells were incubated with lysis buffer for 1 hour at 4° C. prior to storage at −80 C.
A capture antibody able to detect phosphorylated and non-phosphorylated CRKL (R&D Systems, cat #AF5127) was added to Meso Scale Discovery (MSD) standard bind plates (MSD, cat #L15XA-3) at 5 ug/mL and incubated at 4° C. overnight. The next day, plates were washed with PBS+0.05% Tween20 (PBST) and 150 μl of 5% BSA blocking solution was added for 1 hour at room temperature with shaking. Plates were washed with PBST. Lysates were thawed and 30 μl of lysate was added to the MSD plates and incubated for 2 hours at room temperature with shaking. MSD plates were washed with PBST and 30 μl of a detection antibody that binds phosphorylated pCRKL (R&D Systems, cat #MAB6910) was added at 1 μg/mL to each well. Plates were incubated for 1 hour at room temperature with shaking. Plates were washed with PBST prior to addition of 30 μl of a sulfo tagged goat anti mouse detection antibody (MSD cat #R32AC-1). Plates were incubated for 1 hour at room temperature with shaking. Plates were washed with PBST prior to addition of 150 ul of 1×MSD read buffer T (MSD, cat 4R92TC-2). Electrochemiluminescence (ECLU) was read on an MSD plate reader (Meso Scale Discovery). The remaining activity by calculated as follows: 00 Relative activity=100×(ELCUsample−ECLULC)/(ECLUHC−ECLULC). The low and high controls (LC/HC) are generated from lysate from wells without cells or with cells treated with 0.1% DMSO, respectively. IC50 values were calculated using XLFit software using a nonlinear regression model with a sigmoidal dose response and are shown in Table 4 and Table 5 below.

IC50 (K562 cells) [nM]	IC50 (HL60 cells) [nM]	IC50 (ABL1) [nM]	IC50 (ABL1 (T315I)) [nM]	IC50 (pCRKL in K562 cells) [nM]	Compound
267	3110	6.92	5.63	584	COc1cc2[nH]ncc2cc1-c1c[nH]c2nc(NC(=O)[C@H]3C[C@H]3F)ccc12 [Compound 53, (1R,2R)-2-fluoro-N-[3-(6-methoxy-1H-indazol-5-yl)-1H-pyrrolo[2,3-b]pyridin-6-yl]cyclopropane-1-carboxamide]
183	120	30.3	53.5	745	O=C(Nc1ccc2c(-c3ccc4nccn4c3)c[nH]c2n1)C1CC1 [Compound 56, N-(3-(imidazo[1,2-a]pyridin-6-yl)-1H-pyrrolo[2,3-b]pyridin-6-yl)cyclopropanecarboxamide]
132	> 10000	2.92	3.4	281	COc1cc2cn[nH]c2cc1-c1c[nH]c2nc(NC(=O)[C@@H]3C[C@@H]3F)ccc12 [Compound 58, (1S,2S)-2-fluoro-N-[3-(5-methoxy-1H-indazol-6-yl)-1H-pyrrolo[2,3-b]pyridin-6-yl]cyclopropane-1-carboxamide]
36.9	> 10000	3.28	5.08	88.4	COc1nc2nc[nH]c2cc1-c1c[nH]c2nc(NC(=O)C3CC3)ccc12 [Compound 61, N-(3-[5-methoxy-1H-imidazo[4,5-b]pyridin-6-yl]-1H-pyrrolo[2,3-b]pyridin-6-yl)cyclopropanecarboxamide]
137	> 10000	20.8	43	171	CCOc1ncccc1-c1c[nH]c2nc(NC(=O)[C@@H]3C[C@@H]3F)ccc12 [Compound 62, (1S,2S)—N-(3-(2-ethoxypyridin-3-yl)-1H-pyrrolo[2,3-b]pyridin-6-yl)-2-fluorocyclopropane-1-carboxamide]
255	> 10000	40.7	64.5	328	CCOc1ncccc1-c1c[nH]c2nc(NC(=O)[C@H]3C[C@H]3F)ccc12 [Compound 63, (1R,2R)—N-(3-(2-ethoxypyridin-3-yl)-1H-pyrrolo[2,3-b]pyridin-6-yl)-2-fluorocyclopropane-1-carboxamide]
603	> 10000	91.5	38.7	702	COc1cccc(F)c1-c1n[nH]c2nc(NC(=O)[C@@H]3C[C@@H]3F)ccc12 [Compound 66, (1S,2S)-2-fluoro-N-[3-(2-fluoro-6-methoxyphenyl)-1H-pyrazolo[3,4-b]pyridin-6-yl]cyclopropane-1-carboxamide]
351	> 10000	55.6	63	572	COc1ncc(F)cc1-c1n[nH]c2nc(NC(=O)[C@@H]3C[C@@H]3F)ccc12 [Compound 74, (1S,2S)-2-fluoro-N-[3-(5-fluoro-2-methoxypyridin-3-yl)-1H-pyrazolo[3,4-b]pyridin-6-yl]cyclopropane-1-carboxamide]
727	> 10000	106	137	1120	COc1ncccc1-c1n[nH]c2nc(NC(=O)[C@@H]3C[C@@H]3F)ccc12 [Compound 77, (1S,2S)-2-fluoro-N-[3-(2-methoxypyridin-3-yl)-1H-pyrazolo[3,4-b]pyridin-6-yl]cyclopropane-1-carboxamide]
437	> 10000	13.5	20.5	1050	COc1cc2[nH]ncc2cc1-c1n[nH]c2nc(NC(=O)[C@@H]3C[C@@H]3F)ccc12 [Compound 82, (1S,2S)-2-fluoro-N-[3-(6-methoxy-1H-indazol-5-yl)-1H-pyrazolo[3,4-b]pyridin-6-yl]cyclopropane-1-carboxamide]
